A short description of data set [1]: Pharmacokinetic experiment on rats. Format: in vivo, SD rats. Particulars: male, Sprague-Dawley, rat, plasma; Intravenous Injection into Rats (1 mg/kg). Here is the method:
3 male SD rats, each weighing 180 to 240 g, were fasted overnight with water access. A 1 mL/kg solution of the compound was formulated with 10% DMA, 20% solutol HS-15 (30%, w/v) and 70% physiological saline. Blood was sampled before administration and 2 min, 4 min, 8 min, 12 min, 15 min, 30 min, 1 h, 1.5 h and 2 h after administration. Blood samples were centrifuged at 5500 rpm for 10 min, and plasma was collected and stored at −40° C. 10 μl rat plasma from each time point was added to a 200 μl acetonitrile solution containing an internal standard and mixed, followed by 1-min vortexing and 18-min centrifugation at 3700 rpm. Then 70 μl supernatant was mixed with 70 μl water, and 10 μl of the mixture was analyzed by LC-MS/MS. Major pharmacokinetic parameters were subjected to a non-compartment analysis with the software WinNonlin 6.3.

Data set [2] has as its system ICR mice. Kind of data set: Righting reflex experiment on mice. Particulars: for ED50: Mus musculus, iv; for Anesthesia induction time / Anesthesia maintenance time: intravenous injection; for Anesthesia induction time: end of administration until loss of righting reflex; for Anesthesia maintenance time: loss until recovery of righting reflex; for SI: safety index, LD5/ED95, mice; for TI: therapeutic index, LD50/ED50, mice; for HD7: dose required to cause a 7-min anesthesia. The procedure:
(§1) LD5 (5% lethal dose): dose required to cause 5% of mice to die in a test.
(§2) If a normal animal was able to immediately turn its body to normal upright position after being pushed over or made lying on its back, such a reflex was determined as the righting reflex. Otherwise, loss of the righting reflex and the time of loss were recorded, and a reflex recovery time was recorded when the animal restored the righting reflex. The period from finishing of drug administration until loss of the righting reflex was recorded as the anesthesia induction time, and the period from loss of the righting reflex until recovery of the righting reflex was recorded as the anesthesia maintenance time.
(§3) TI (therapeutic index, i.e. LD50/ED50), SI (safety index, i.e. LD5/ED95).
(§4) MTD (maximum tolerated dose): the maximum dose able to cause 100% to loss the righting index without death.
(§5) Indicators such as median effective dose (ED50), median lethal dose (LD50), therapeutic index (TI, i.e. LD50/ED50), safety index (SI, i.e. LD5/ED95), anesthesia induction time, anesthesia maintenance time, and maximum tolerated dose (MTD) were used to evaluate the effect and safety of anesthesia. […] After adapting to the laboratory environment, laboratory animals were fasted for 12 hours. On the next day, administration was carried out at 10 mg/kg body weight. Upon intravenous injection, the time of loss of the righting reflex was recorded. The period from finishing of drug administration until loss of the righting reflex was recorded as the anesthesia induction time, and the period from loss of the righting reflex until recovery of the righting reflex was recorded as the anesthesia maintenance time. The anesthesia induction time and the anesthesia maintenance time were used to indicate how strong an anesthetic effect was. Meanwhile, the dose required to cause a 7-min anesthesia (HD7) was measured and used to evaluate relative efficacy.

The nature of data set [3]: Righting reflex experiment on mice. Particulars: both, ICR, mouse, in vivo; for MTD: intravenous; for LD50: iv. Here is the method:
as §1, §2, §3, §4, §5

Data set [4] concerns ICR mice. Kind of data set: Righting reflex experiment on mice with prodrugs. Format: in vivo. Conditions: for ED50: Mus musculus, prodrugs formulated with physiological saline, read-out: ED50; for ED50 / Anesthesia induction time / Anesthesia maintenance time: intravenous injection; for SI: safety index, LD5/ED95, mice; for TI: therapeutic index, LD50/ED50, mice. The procedure: (§6) After adapting to the laboratory environment, the SPF-grade ICR mice were fasted for 12 hours.

A short description of data set [5]: Righting reflex experiment on mice with prodrugs. Format: in vivo. Conditions: both sexes, ICR, mouse, in vivo, mice; for LD50: intravenous injection, prodrugs in physiological saline; for MTD: intravenous, prodrugs. The procedure:
as §6

Another data set has as its system SD rats. Put plainly: Efficacy experiment on rats with prodrugs. Format: in vivo. Particulars: for ED50: Rattus norvegicus, non-linear fitting; for ED50 / Anesthesia induction time / Anesthesia maintenance time: SD rats, tail vein. The procedure:
(§7) This experiment selected SD rats, each weighing 180 to 200 g. The rats were randomized, with 10 animals per group, half male and half female. […] The time of administration, time of loss of the righting reflex, time of recovery of the righting reflex, and time of walking were recorded. Adverse effects shown by the rats after administration were also recorded.
(§8) Time of loss of the righting reflex: the righting reflex is lost; a rat made lying on its back can maintain the lying for a period of 60 s;
(§9) Time of recovery of the righting reflex: the righting reflex ability is restored; a rat made lying on its back rights in less than 2 s;
(§10) Time of walking: spontaneous forwarding moving occurs, and muscle tension of the limbs recovers.
(§11) Using GraphPad Prism 5, ED50 and LD50 values were calculated from a non-linear fitting of number of anesthetic or dead animals resulting from various doses.

Data set [6] is described as follows: Efficacy experiment on rats with prodrugs. Format: in vivo. Conditions: both sexes, Sprague-Dawley, rat, in vivo, intravenous, SD rats; for LD50: tail vein, non-linear fitting. The procedure: as §7, §8, §9, §10, §11
The nature of data set [7]: Pharmacokinetic analysis with prodrugs in rats. Format: in vivo, SD rats. Particulars: male, Sprague-Dawley, rat, plasma; Intravenous Injection into Rats (10 mg/kg); analyte: prodrug. The procedure: 3 male SD rats, each weighing 180 to 240 g, were fasted overnight with water access. After a single intravenous administration of a prodrug at 10 mg/kg to rats, the plasma concentrations of the prodrug and the active form were each measured by LC-MS/MS, and the pharmacokinetic parameters were analyzed.

For orientation: AUC(0-t) means exposure summed from dosing to a finite time, without extrapolation to infinity. Usually clearance stands for the volume of plasma or blood freed of the substance per unit of time. For orientation: half-life means the time needed for the level to fall by half in the phase considered. By ED50 is commonly meant the midpoint of the dose-response relation. The term LD50 denotes the dose at which mortality reaches 50%. Take `CC[C@@H](C)c1cccc([C@@H](C)C2CC2)c1O` [Compound 29, 2-[(1S)-1-cyclopropylethyl]-6-[(1R)-1-methylpropyl]phenol]: in data set [1], the exposure AUC(0-t) was determined as 114 ng·h/mL, the clearance is 145 mL/min/kg and the half-life is 24 min. In the data set with ICR mice [2], this compound showed a median effective dose (ED50) of 10.1 mg/kg, an SI of 3.7 and a TI of 6.4. In the data set with ICR mice [2] (mice), this compound registered an Anesthesia induction time of less than 15.0 s and an Anesthesia maintenance time of 1149.5 s. In data set [3], this compound came in with an MTD of 40 mg/kg and an LD50 of 65.4 mg/kg.

With `CC(C)c1cccc([C@H](C)C2CC2)c1OCOP(=O)([O-])[O-].[Na+].[Na+]` [Compound 52], in the data set on ICR mice [4] (mice), the median effective dose (ED50) is 20.4 mg/kg. In addition, in the data set on ICR mice [4] (mice, prodrugs), the Anesthesia induction time is 73.0 s, the Anesthesia maintenance time was 1830.2 s and the MTD is 60.0 mg/kg. Moreover, in the data set with ICR mice [4] (prodrugs), the SI was found to be 3.3 and the TI was determined as 4.2. Moreover, the LD50 in data set [5] worked out at 86.2 mg/kg. In the data set on SD rats, the 50% effective dose (ED50) was 12.5 to 15 mg/kg, the Anesthesia induction time is on record as 92.8 s and the Anesthesia maintenance time is on record as 1946.3 s. For the same compound, in data set [6], the MTD was found to be 30 mg/kg and the LD50 turned out to be 61.4 mg/kg. In data set [7], the area under the curve AUC(0-t) turned out to be 15900 ng·h/mL, the clearance stood at 10.5 mL/min/kg and the half-life is 24 min.

In data set [1], `CC(c1cccc(C(C)C2CC2)c1O)C1CC1` (stereo not drawn) [Compound 13, 2,6-bis(1-cyclopropylethyl)phenol] gave an AUC(0-t) of 187 ng·h/mL, a clearance of 87.5 mL/min/kg and a half-life of 12 min. In the data set on ICR mice [2], this compound showed a 50% effective dose (ED50) of 3.6 mg/kg, an SI of 3.0 and a TI of 5.5. In the data set with ICR mice [2] (mice), this compound came in with an Anesthesia induction time of less than 15.0 s, an Anesthesia maintenance time of 554.4 s and an HD7 of 7.0 mg/kg. Moreover, the MTD in the data set with ICR mice [2] (mice, maximum dose causing 100% loss of righting reflex without death) stood at 10.0 mg/kg. The same compound came in with a 50% lethal dose (LD50) in data set [3] of 20 mg/kg.

As to `CC[C@@H](C)c1cccc([C@H](C)C2CC2)c1O` [Compound 26, 2-[(1R)-1-cyclopropylethyl]-6-[(1R)-1-methylpropyl]phenol], in data set [1], the AUC(0-t) is 124 ng·h/mL, the clearance was 134 mL/min/kg and the half-life was 30 min. Moreover, in the data set on ICR mice [2], the ED50 worked out at 1.3 mg/kg, the SI turned out to be 2.4 and the TI is listed as 6.4. Moreover, in the data set with ICR mice [2] (mice), the Anesthesia induction time is less than 15.0 s, the Anesthesia maintenance time was found to be 690.0 s and the HD7 was found to be 2.5 mg/kg. For the same compound, in data set [3], the MTD amounted to 4 mg/kg and the 50% lethal dose (LD50) was 8.3 mg/kg.

As to `CC[C@H](C)c1cccc([C@H](C)C2CC2)c1O` [Compound 25, 2-[(1R)-1-cyclopropylethyl]-6-[(1S)-1-methylpropyl]phenol], in data set [1], the exposure AUC(0-t) was determined as 78.1 ng·h/mL, the clearance came out at 208 mL/min/kg and the half-life was 24 min. In the data set on ICR mice [2], the 50% effective dose (ED50) amounted to 2 mg/kg, the SI is 4.6 and the TI is 7.1. Further, in the data set on ICR mice [2] (mice), the Anesthesia induction time is recorded as less than 15.0 s, the Anesthesia maintenance time is on record as 1048.0 s and the HD7 amounted to 4.0 mg/kg. Further, in data set [3], the MTD was determined as 10 mg/kg and the 50% lethal dose (LD50) came out at 14.3 mg/kg.

In data set [1], `CC[C@H](C)c1cccc([C@@H](C)C2CC2)c1O` [Compound 28, 2-[(1S)-1-cyclopropylethyl]-6-[(1S)-1-methylpropyl]phenol] gave an AUC(0-t) of 143 ng·h/mL, a clearance of 115 mL/min/kg and a half-life of 18 min. For the same compound, in the data set with ICR mice [2], the ED50 turned out to be 5.3 mg/kg, the SI stood at 3.0 and the TI came out at 6.9. In the data set on ICR mice [2] (mice), this compound had an Anesthesia induction time of less than 15.0 s, an Anesthesia maintenance time of 885.9 s and an HD7 of 8.0 mg/kg. Further, in data set [3], the MTD came out at 15 mg/kg and the median lethal dose (LD50) turned out to be 36.8 mg/kg.

As for `CC(C)c1cccc([C@H](C)C2CC2)c1OCOC(=O)[C@H](Cc1ccccc1)NC(=O)OC(C)(C)C` [Compound 61, [2-[(1R)-1-cyclopropylethyl]-6-isopropyl-phenoxy]methyl(2S)-2-(tertbutoxycarbonylamino)-3-phenyl-propanoate], the values for the ED50 in the data set with ICR mice [4] (mice) and in the data set with SD rats were 6.1 mg/kg and 6.5 mg/kg, respectively. Also, the Anesthesia induction time stood at 17.5 s in the data set on ICR mice [4] (mice, prodrugs) and 0.0 s in the data set with SD rats. Besides, the Anesthesia maintenance time is given as 1109.2 s in the data set on ICR mice [4] (mice, prodrugs) and 1474.9 s in the data set with SD rats. Further, the “ED50 and efficacy compared with propofol” value in the data set with ICR mice [4] (mice, prodrugs) was “smaller ED50 value and higher efficacy than propofol”; in the data set with SD rats (rats, prodrugs) it was “smaller ED50 and higher efficacy than propofol”. The SI was 3.7 with ICR mice [4] (prodrugs) and 6.3 in the data set with SD rats (safety index, LD5/ED95, rats). The TI in the data set with ICR mice [4] (prodrugs) amounted to 14.4; in the data set with SD rats (therapeutic index, LD50/ED50, rats), 9.4. Further, the MTD in data set [5] and in data set [6] was 40 mg/kg throughout. Also, the LD50 in data set [5] is 87.4 mg/kg; in data set [6], 60.8 mg/kg.

In data set [1], `COc1cccc(C(C)C2CC2)c1O` (stereo not drawn) [Compound 8, 2-(1-cyclopropylethyl)-6-methoxy-phenol] had an exposure AUC(0-t) of 132 ng·h/mL, a clearance of 119 mL/min/kg and a half-life of 48 min. In addition, in the data set with ICR mice [2], the 50% effect level (ED50) was put at a dose of 7.3 mg/kg, the SI is 7.0 and the TI came to 9.1. In addition, in the data set with ICR mice [2] (mice), the Anesthesia induction time is less than 15.0 s and the Anesthesia maintenance time amounted to 394.8 s. Besides, in data set [3], the MTD was found to be 40 mg/kg and the median lethal dose (LD50) worked out at 67 mg/kg.

`CC(C)c1cccc([C@H](C)C2CC2)c1OP(=O)(O)O` [Compound 46, [[2-[(1R)-1-cyclopropylethyl]-6-isopropyl-phenoxy]-sodiooxy-phosphoryl]oxysodium]: the ED50 in the data set with ICR mice [4] (mice) was 72.6 mg/kg. Moreover, in the data set with ICR mice [4] (mice, prodrugs), the Anesthesia induction time is reported as 167.0 s and the Anesthesia maintenance time was found to be 2204.6 s. For the same compound, in the data set with ICR mice [4] (prodrugs), the SI was 2.4 and the TI stood at 3.1. Further, in data set [5], the MTD turned out to be 200 mg/kg and the LD50 was determined as 225 mg/kg. For the same compound, in data set [7], the AUC(0-t) came to 22400 ng·h/mL, the clearance came to 6.1 mL/min/kg and the half-life is 54 min.

For the origin of these results see patent US9517988B2 (Sichuan Haisco Pharmaceutical Co., Ltd., priority 2013, dated 2016).
